From paper PMC5374710, “Discovery of the first dual GSK3β inhibitor/Nrf2 inducer. A new multitarget therapeutic strategy for Alzheimer’s disease” (Scientific Reports, 2017)

Tests used:
primary rat glial cells [1] = experiment: ROS production in LPS-stimulated primary glial cultures (H2DCFDA); format: cell-based; settings: Glial cell, 24 h pre-incubation, 18 h co-incubation with LPS, 3 h with fluorescent dye, read-out: IC50 ROS reduction
Description: (§1) Therefore, we envisaged the study of compounds 5a–t as potential anti-inflammatory agents. We used primary rat glial cells treated with lipopolysaccharide (LPS) to induce the production of nitrites and ROS as a model of glial activation. Nitrite production is directly proportional to the expression of the iNOS, that is over-expressed when LPS activates glial cells. ROS production is proportional to NOX activation after stimulation with LPS. Results are summarized in Table 2 as IC50s of nitrite production reduction and ROS production reduction. We have included sulforaphane as control in all experiments (see the Supporting Information).
Besides the increase in nitrite production, it is well known that LPS stimulation of microglia also induces the activation of NOX, which induces superoxide free radical production. In fact, this mechanism is synergistic with the expression of iNOS and the production of nitrites. In this respect, there is a body of evidence showing that NOX activation is a major contributor to ROS oxidative stress and neuronal death in AD[57][58]. […] In general, potency to reduce ROS production increased from ortho to para and meta as observed above.
(§2) Primary glial cells were cultured in bottom transparent 96-well black plates following standard protocol. Cells were pre-incubated with the corresponding compound at the selected concentrations, for 24 hours, and therafter, co-incubated with the corresponding compound and LPS (1 μM) during 18 h more. Then, treatments were removed and cells were loaded with the fluorescent probe 2′,7′-dichlorodihydrofluorescein diacetate (H2DCFDA) (10 μM) for 45 minutes in serum free glial culture medium. All experiments included cells treated with culture medium alone (basal). Cells were washed twice with culture medium and fluorescence intensity was recorded in a Fluostar Optima multiwall pate reader (BMG Labtech, Offenburg, Germany) at 485/520 nm as excitation and emission wavelengths respectively, each hour, during 3 hours period. Data were normalized with respect to basal conditions that were considered as 100%.
as §2, with “µM)” for “μM)”, “2',7'-dichlorodihydrofluorescein” for “2′,7′-dichlorodihydrofluorescein”
(§3) Mixed glial cultures were obtained from cerebral cortex of 2-5 day-old Sprague-Dawley rats. After removal of blood vessels and meninges, the forebrains were dissociated in DMEM/F12 medium. After mechanical dissociation, cells were plated (3x10^5 cells/ml) in DMEM/F12 medium with 20% fetal bovine serum (FBS) and 1 % penicillin/streptomycin (10,000 units), at 37 °C and in a 5 % CO2-supplemented air atmosphere. After 5 days, medium was substituted by DMEM/F12 medium with 10 % FBS. Cells were cultured for 7-10 days before treatment.

primary rat glial cells [2] = experiment: Nitrite production in LPS-stimulated primary glial cultures (Griess); format: cell-based; settings: Glial cell, 24 h pre-incubation, 18 h co-incubation with LPS 1 μg/mL, read-out: IC50 nitrite reduction
Description: as §1
Glial cells were pre-incubated with increasing concentrations of compounds for 24 hours. Then, treatments were removed and cells were incubated with LPS (1 μg/mL) alone or in presence of each compound at the desired concentration. Nitrite production was assessed 18 hours later by modified Griess assay. Briefly, samples (150 μl) were mixed with dapsone (75 μl) and NEDA (75 μl), and the mixture was incubated at room temperature for 5 min. Light absorption was measured at 550 nm in a microplate reader (Labtech, Offenburg, Germany). All data were normalized to basal nitrite production, considering this value as 100% of nitrite production. IC50 values were calculated from dose-response curves represented as percentage of nitrite production reduction induced by the different concentrations of each compound.
as §3
Primary rat glial cells were treated with compounds 5a-t at increasing concentrations (3, 10, 30 and 60 µM) during 24 h. Thereafter, treatments were removed and glial cells were co-incubated with increasing concentrations of each compound and LPS (1 µg/mL) for 18 h more. At the end of this period, supernatant was collected and the presence of nitrites was analyzed by the Griess method with modifications.^20 Each plate included non-treated cells as basal nitrite production, sulforaphane (SFN, 10 µM) as positive control. Briefly, samples (150 µl) were mixed with DAPSONE (75 µl) and NEDA (75 µl), and the mixture was incubated at room temperature for 5 min. Light absorption was measured at 550 nm in a microplate reader (Labtech, Offenburg, Germany). All data were normalized to basal nitrite production, considering this value as 100% of nitrite production. EC50 values were calculated from dose-response curves represented as percentage of nitrite production reduction induced by the different concentrations of each compound. Concentration response curves were fitted by non-linear regression analysis of individual concentration-response curves using GraphPad Prism software (San Diego, CA, USA). EC50 values are expressed as mean ± SEM of four different experiments in triplicate.

IC50 (primary rat glial cells [1])	IC50 (primary rat glial cells [2])	SMILES
60 ± 0.29 µM	34.3 ± 3.84 µM	Cc1ccccc1C1C(C#N)=C(N)Oc2[nH]nc(C)c21 (centres unmarked) [Compound 5e, 6-Amino-3-methyl-4-(2-methylphenyl)-2,4-dihydropyrano[2,3-c]pyrazole-5-carbonitrile]
45.1 ± 5.33 µM	22.3 ± 3.82 µM	Cc1ccc(C2C(C#N)=C(N)Oc3[nH]nc(C)c32)cc1 (centres unmarked) [Compound 5g, 6-Amino-3-methyl-4-(4-methylphenyl)-2,4-dihydropyrano[2,3-c]pyrazole-5-carbonitrile]
37 ± 4.32 µM	11.3 ± 1.15 µM	Cc1n[nH]c2c1C(c1ccc(F)cc1)C(C#N)=C(N)O2 (centres unmarked) [Compound 5h, 6-Amino-4-(4-fluorophenyl)-3-methyl-2,4-dihydropyrano[2,3-c]pyrazole-5-carbonitrile]
> 60 µM	> 60 µM	Cc1n[nH]c2c1C(c1ccccc1Cl)C(C#N)=C(N)O2 (centres unmarked) [Compound 5i, 6-Amino-4-(2-chlorophenyl)-3-methyl-2,4-dihydropyrano[2,3-c]pyrazole-5-carbonitrile]
> 60 µM	26 ± 2.74 µM	Cc1n[nH]c2c1C(c1ccc(Cl)cc1)C(C#N)=C(N)O2 (centres unmarked) [Compound 5k, 6-Amino-4-(4-chlorophenyl)-3-methyl-2,4-dihydropyrano[2,3-c]pyrazole-5-carbonitrile]
38.6 ± 7.16 µM	26.7 ± 1.95 µM	Cc1n[nH]c2c1C(c1ccccc1Br)C(C#N)=C(N)O2 (centres unmarked) [Compound 5l, 6-Amino-4-(2-bromophenyl)-3-methyl-2,4-dihydropyrano[2,3-c]pyrazole-5-carbonitrile]
22.5 ± 7.78 µM	17.5 ± 2.45 µM	Cc1n[nH]c2c1C(c1ccco1)C(C#N)=C(N)O2 (centres unmarked) [Compound 5q, 6-Amino-4-(furan-2-yl)-3-methyl-2,4-dihydropyrano[2,3-c]pyrazole-5-carbonitrile]
> 60 µM	> 60 µM	Cc1n[nH]c2c1C(c1cccs1)C(C#N)=C(N)O2 (centres unmarked) [Compound 5r, 6-Amino-3-methyl-4-(thiophen-2-yl)-2,4-dihydropyrano[2,3-c]pyrazole-5-carbonitrile]

More lines, now with the values behind:

SMILES	IC50 (primary rat glial cells [1])	IC50 (primary rat glial cells [2])
Cc1[nH]nc2c1C(c1ccccc1)C(C#N)=C(N)O2 (centres unmarked) [Compound 5a, 6-Amino-3-methyl-4-phenyl-2,4-dihydropyrano[2,3-c]pyrazole-5-carbonitrile]	> 60 µM	> 60 µM
COc1ccccc1C1C(C#N)=C(N)Oc2n[nH]c(C)c21 (centres unmarked) [Compound 5b, 6-Amino-4-(2-methoxyphenyl)-3-methyl-2,4-dihydropyrano[2,3-c]pyrazole-5-carbonitrile]	> 60 µM	43.6 ± 6.45 µM
COc1cccc(C2C(C#N)=C(N)Oc3n[nH]c(C)c32)c1 (centres unmarked) [Compound 5c, 6-Amino-4-(3-methoxyphenyl)-3-methyl-2,4-dihydropyrano[2,3-c]pyrazole-5-carbonitrile]	18.1 ± 5.36 µM	12.9 ± 0.86 µM
COc1ccc(C2C(C#N)=C(N)Oc3n[nH]c(C)c32)cc1 (centres unmarked) [Compound 5d, 6-Amino-4-(4-methoxyphenyl)-3-methyl-2,4-dihydropyrano[2,3-c]pyrazole-5-carbonitrile]	19.9 ± 4.89 µM	35.4 ± 2.57 µM
Cc1cccc(C2C(C#N)=C(N)Oc3n[nH]c(C)c32)c1 (centres unmarked) [Compound 5f, 6-Amino-3-methyl-4-(3-methylphenyl)-2,4-dihydropyrano[2,3-c]pyrazole-5-carbonitrile]	32.6 ± 6.79 µM	13.4 ± 1.44 µM
Cc1[nH]nc2c1C(c1cccc(Cl)c1)C(C#N)=C(N)O2 (centres unmarked) [Compound 5j, 6-Amino-4-(3-chlorophenyl)-3-methyl-2,4-dihydropyrano[2,3-c]pyrazole-5-carbonitrile]	24 ± 2.58 µM	5.11 ± 0.65 µM
Cc1[nH]nc2c1C(c1ccc(Br)cc1)C(C#N)=C(N)O2 (centres unmarked) [Compound 5m, 6-Amino-4-(4-bromophenyl)-3-methyl-2,4-dihydropyrano[2,3-c]pyrazole-5-carbonitrile]	33.2 ± 7.36 µM	11.4 ± 2.27 µM
Cc1[nH]nc2c1C(c1ccccc1[N+](=O)[O-])C(C#N)=C(N)O2 (centres unmarked) [Compound 5n, 6-Amino-3-methyl-4-(2-nitrophenyl)-2,4-dihydropyrano[2,3-c]pyrazole-5-carbonitrile]	19.9 ± 4.89 µM	15.8 ± 5.23 µM
Cc1[nH]nc2c1C(c1cccc([N+](=O)[O-])c1)C(C#N)=C(N)O2 (centres unmarked) [Compound 5o, 6-Amino-3-methyl-4-(3-nitrophenyl)-2,4-dihydropyrano[2,3-c]pyrazole-5-carbonitrile]	30.8 ± 4.99 µM	40.8 ± 2.23 µM
Cc1[nH]nc2c1C(c1ccc([N+](=O)[O-])cc1)C(C#N)=C(N)O2 (centres unmarked) [Compound 5p, 6-Amino-3-methyl-4-(4-nitrophenyl)-2,4-dihydropyrano[2,3-c]pyrazole-5-carbonitrile]	> 60 µM	26.7 ± 4.86 µM
Cc1[nH]nc2c1C(c1cccnc1)C(C#N)=C(N)O2 (centres unmarked) [Compound 5s, 6-Amino-3-methyl-4-(pyridin-3-yl)-2,4-dihydropyrano[2,3-c]pyrazole-5-carbonitrile]	15.2 ± 3.73 µM	7.23 ± 1.1 µM
